Assay results taken from patent US9346815B2, “5-chloro-2-difluoromethoxyphenyl pyrazolopyrimidine compounds, compositions and methods of use thereof” (Genentech, Inc., priority 2014, dated 2016).

What was measured:
[1] = target: isolated recombinant JAK1 kinase domain (Homo sapiens (Human), UniProt P23458); assay: JAK1 enzyme assay (Caliper LabChip, peptide phosphorylation); format: biochemical; details: isolated recombinant JAK1 kinase domain, 25 μM ATP
[2] = target: isolated recombinant JAK2 kinase domain (Homo sapiens (Human), UniProt O60674); assay: JAK2 enzyme assay (Caliper LabChip, peptide phosphorylation); format: biochemical; details: 25 μM ATP
isolated recombinant JAK2 kinase domain, sequence (O60674 849-1124): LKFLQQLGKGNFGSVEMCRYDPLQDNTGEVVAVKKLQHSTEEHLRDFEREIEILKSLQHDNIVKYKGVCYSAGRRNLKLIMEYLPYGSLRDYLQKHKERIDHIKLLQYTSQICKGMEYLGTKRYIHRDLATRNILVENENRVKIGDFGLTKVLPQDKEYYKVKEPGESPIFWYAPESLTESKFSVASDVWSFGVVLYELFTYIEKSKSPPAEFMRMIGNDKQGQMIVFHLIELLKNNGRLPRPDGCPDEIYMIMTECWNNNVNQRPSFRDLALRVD

[3] = test system: JAK1-dependent STAT6 phosphorylation downstream of IL-13 stimulation in BEAS-2B human bronchial epithelial cells; assay: JAK1 pathway assay in BEAS-2B cells (IL-13-pSTAT6, MSD); format: cell-based; details: read-out: IL13-pSTAT6 EC50 (uM)_BEAS-2B
Description: JAK1 Pathway Assay in Cell Lines was Carried Out as Follows:
Inhibitor potency (EC50) was determined in cell-based assays designed to measure JAK1 dependent STAT phosphorylation.
In one assay approach, TF-1 human erythroleukemia cells obtained from the American Type Culture Collection (ATCC; Manassas, Va.) were used to measure JAK1-dependent STAT6 phosphorylation downstream of IL-13 stimulation. Prior to use in the assays, TF-1 cells were starved of GM-CSF overnight in OptiMEM medium (Life Technologies, Grand Island, N.Y.) supplemented with 0.5% charcoal/dextran stripped fetal bovine serum (FBS), 0.1 mM non-essential amino acids (NEAA), and 1 mM sodium pyruvate. The assays were run in 384-well plates in serum-free OptiMEM medium using 300,000 cells per well. In a second assay approach, BEAS-2B human bronchial epithelial cells obtained from ATCC were plated at 100,000 cells per well of a 96-well plate one day prior to the experiment. The BEAS-2B assay was run in complete growth medium (bronchial epithelial basal medium plus bulletkit; Lonza; Basel, Switzerland).
Test compounds were serially diluted 1:2 in DMSO and then diluted 1:50 in medium just before use. Diluted compounds were added to the cells, for a final DMSO concentration of 0.2%, and incubated for 30 min (for the TF-1 assay) or 1 hr (for the BEAS-2B assay) at 37° C. Then, cells were stimulated with human recombinant cytokine at their respective EC90 concentrations, as previously determined for each individual lot. Cells were stimulated with IL-13 (R&D Systems, Minneapolis, Minn.) for 15 min at 37° C. The TF-1 cell reactions were stopped by the direct addition of 10× lysis buffer (Cell Signaling Technologies, Danvers, Mass.), whereas the BEAS-2B cell incubations were halted by the removal of medium and addition of 1× lysis buffer. The resultant samples were frozen in the plates at −80° C. Compound mediated inhibition of STAT6 phosphorylation was measured in the cell lysates using MesoScale Discovery (MSD) technology (Gaithersburg, Md.).

isolated recombinant JAK1 kinase domain, sequence (P23458 875-1153): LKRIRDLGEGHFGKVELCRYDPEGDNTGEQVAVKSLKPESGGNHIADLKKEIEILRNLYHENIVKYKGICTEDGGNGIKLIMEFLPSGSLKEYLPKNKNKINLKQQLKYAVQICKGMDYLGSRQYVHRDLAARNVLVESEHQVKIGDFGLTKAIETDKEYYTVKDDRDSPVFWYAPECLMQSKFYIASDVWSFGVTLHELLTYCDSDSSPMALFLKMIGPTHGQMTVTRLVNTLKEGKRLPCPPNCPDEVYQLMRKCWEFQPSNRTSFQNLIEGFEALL

SMILES	Ki [1] [nM]	Ki [2] [nM]	EC50 [3] [µM]
O=C1CCC(CN2CCN(C(=O)Cn3cc(NC(=O)c4cnn5cccnc45)c(-c4cc(Cl)ccc4OC(F)F)n3)CC2)O1 (stereo not drawn) [Example 382, N-[3-[5-chloro-2-(difluoromethoxy)phenyl]-1-(2-oxo-2-[4-[(5-oxooxolan-2-yl)methyl]piperazin-1-yl]ethyl)-1H-pyrazol-4-yl]pyrazolo[1,5-a]pyrimidine-3-carboxamide]	0.34	0.75	0.0257
CN(C)CCN1CCN(C(=O)Cn2cc(NC(=O)c3cnn4cccnc34)c(-c3cc(Cl)ccc3OC(F)F)n2)CC1 [Example 379, N-[3-[5-chloro-2-(difluoromethoxy)phenyl]-1-(2-[4-[2-(dimethylamino)ethyl]piperazin-1-yl]-2-oxoethyl)-1H-pyrazol-4-yl]pyrazolo[1,5-a]pyrimidine-3-carboxamide]	0.86	2.33	0.0755
CCCN1CCN(C(=O)Cn2cc(NC(=O)c3cnn4cccnc34)c(-c3cc(Cl)ccc3OC(F)F)n2)CC1 [Example 319, N-[3-[5-chloro-2-(difluoromethoxy)phenyl]-1-[2-oxo-2-(4-propylpiperazin-1-yl)ethyl]-1H-pyrazol-4-yl]pyrazolo[1,5-a]pyrimidine-3-carboxamide]	0.5	0.86	0.0577
CC(C#N)CN(C)C1CCN(C(=O)Cn2cc(NC(=O)c3cnn4cccnc34)c(-c3cc(Cl)ccc3OC(F)F)n2)CC1 (stereo not drawn) [Example 413, N-(3-(5-chloro-2-(difluoromethoxy)phenyl)-1-(2-(4-((2-cyanopropyl) (methyl)amino)piperidin-1-yl)-2-oxoethyl)-1H-pyrazol-4-yl)pyrazolo[1,5-a]pyrimidine-3-carboxamide]	0.25	0.74	0.0209
O=C(Nc1cn(CC(=O)N2CCC(C(=O)O)CC2)nc1-c1cc(Cl)ccc1OC(F)F)c1cnn2cccnc12 [Example 342, 1-(2-[3-[5-chloro-2-(difluoromethoxy)phenyl]-4-[pyrazolo[1,5-a]pyrimidine-3-amido]-1H-pyrazol-1-yl]acetyl)piperidine-4-carboxylic acid]	0.19	0.2	1.81
CCOC(=O)C1CCN(CCN2CCN(C(=O)Cn3cc(NC(=O)c4cnn5cccnc45)c(-c4cc(Cl)ccc4OC(F)F)n3)CC2)CC1 [Example 334, ethyl 1-[2-[4-(2-[3-[5-chloro-2-(difluoromethoxy)phenyl]-4-[pyrazolo[1,5-a]pyrimidine-3-amido]-1H-pyrazol-1-yl]acetyl)piperazin-1-yl]ethyl]piperidine-4-carboxylate]	0.69	1.81	0.0061
O=C(Nc1cn(CCNCc2cccc(O)c2)nc1-c1cc(Cl)ccc1OC(F)F)c1cnn2cccnc12 [Example 327, N-[3-[5-chloro-2-(difluoromethoxy)phenyl]-1-(2-[[(3-hydroxyphenyl)methyl]amino]ethyl)-1H-pyrazol-4-yl]pyrazolo[1,5-a]pyrimidine-3-carboxamide]	0.25	0.2	0.0077
CN(CCC#N)C1CCC(=CCn2cc(NC(=O)c3cnn4cccnc34)c(-c3cc(Cl)ccc3OC(F)F)n2)CC1 (stereo not drawn) [Example 420, N-(3-(5-chloro-2-(difluoromethoxy)phenyl)-1-(2-(4-((2-cyanoethyl)(methyl)amino)cyclohexylidene)ethyl)-1H-pyrazol-4-yl)pyrazolo[1,5-a]pyrimidine-3-carboxamide]	0.57	0.81	0.0301
CC(C)CN1CCN(C(=O)Cn2cc(NC(=O)c3cnn4cccnc34)c(-c3cc(Cl)ccc3OC(F)F)n2)CC1 [Example 317, N-[3-[5-chloro-2-(difluoromethoxy)phenyl]-1-[2-[4-(2-methylpropyl)piperazin-1-yl]-2-oxoethyl]-1H-pyrazol-4-yl]pyrazolo[1,5-a]pyrimidine-3-carboxamide]	0.64	1.16	0.0229
C[C@@H](Cn1cc(NC(=O)c2cnn3cccnc23)c(-c2cc(Cl)ccc2OC(F)F)n1)N(C)C [Example 370, N-[3-[5-chloro-2-(difluoromethoxy)phenyl]-1-[(2S)-2-(dimethylamino)propyl]-1H-pyrazol-4-yl]pyrazolo[1,5-a]pyrimidine-3-carboxamide]	1.37	1.37	0.0402
N#CC1CCN(C2CCN(C(=O)Cn3cc(NC(=O)c4cnn5cccnc45)c(-c4cc(Cl)ccc4OC(F)F)n3)CC2)CC1 [Example 462, N-(3-(5-chloro-2-(difluoromethoxy)phenyl)-1-(2-(4-cyano-1,4′-bipiperidin-1′-yl)-2-oxoethyl)-1H-pyrazol-4-yl)pyrazolo[1,5-a]pyrimidine-3-carboxamide]	0.38	0.86	0.0108
N#CCCCN1CCN(C(=O)Cn2cc(NC(=O)c3cnn4cccnc34)c(-c3cc(Cl)ccc3OC(F)F)n2)CC1 [Example 461, N-(3-(5-chloro-2-(difluoromethoxy)phenyl)-1-(2-(4-(3-cyanopropyl)piperazin-1-yl)-2-oxoethyl)-1H-pyrazol-4-yl)pyrazolo[1,5-a]pyrimidine-3-carboxamide]	0.4	0.84	0.0117
O=C(Nc1cn(CCN2CCNCC2=O)nc1-c1cc(Cl)ccc1OC(F)F)c1cnn2cccnc12 [Example 417, N-(3-(5-chloro-2-(difluoromethoxy)phenyl)-1-(2-(2-oxopiperazin-1-yl)ethyl)-1H-pyrazol-4-yl)pyrazolo[1,5-a]pyrimidine-3-carboxamide]	2.91	1.37	0.0934
N#CC1CN(C2CCN(C(=O)Cn3cc(NC(=O)c4cnn5cccnc45)c(-c4cc(Cl)ccc4OC(F)F)n3)CC2)C1 [Example 446, N-(3-(5-chloro-2-(difluoromethoxy)phenyl)-1-(2-(4-(3-cyanoazetidin-1-yl)piperidin-1-yl)-2-oxoethyl)-1H-pyrazol-4-yl)pyrazolo[1,5-a]pyrimidine-3-carboxamide]	0.45	1.3	0.0121
O=C(Nc1cn(CCNCc2ncco2)nc1-c1cc(Cl)ccc1OC(F)F)c1cnn2cccnc12 [Example 367, N-[3-[5-chloro-2-(difluoromethoxy)phenyl]-1-[2-[(1,3-oxazol-2-ylmethyl)amino]ethyl]-1H-pyrazol-4-yl]pyrazolo[1,5-a]pyrimidine-3-carboxamide]	0.83	0.5	0.0352
CN(CCn1cc(NC(=O)c2cnn3cccnc23)c(-c2cc(Cl)ccc2OC(F)F)n1)CC1CCC(=O)O1 (stereo not drawn) [Example 390, N-[3-[5-chloro-2-(difluoromethoxy)phenyl]-1-(2-[methyl[(5-oxooxolan-2-yl)methyl]amino]ethyl)-1H-pyrazol-4-yl]pyrazolo[1,5-a]pyrimidine-3-carboxamide]	1.28	0.84	0.0424
CN(CC1(CC#N)CC1)C1CCN(C(=O)Cn2cc(NC(=O)c3cnn4cccnc34)c(-c3cc(Cl)ccc3OC(F)F)n2)CC1 [Example 435, N-(3-(5-chloro-2-(difluoromethoxy)phenyl)-1-(2-(4-(((1-(cyanomethyl)cyclopropyl)methyl)(methyl)amino)piperidin-1-yl)-2-oxoethyl)-1H-pyrazol-4-yl)pyrazolo[1,5-a]pyrimidine-3-carboxamide]	0.34	0.98	0.0074
CN1CCN(C2CCN(C(=O)Cn3cc(NC(=O)c4cnn5cccnc45)c(-c4cc(Cl)ccc4OC(F)F)n3)CC2)CC1 [Example 349, N-[3-[5-chloro-2-(difluoromethoxy)phenyl]-1-[2-[4-(4-methylpiperazin-1-yl)piperidin-1-yl]-2-oxoethyl]-1H-pyrazol-4-yl]pyrazolo[1,5-a]pyrimidine-3-carboxamide]	0.55	1.65	0.0155
CN1CCN(C(=O)Cn2cc(NC(=O)c3cnn4cccnc34)c(-c3cc(Cl)ccc3OC(F)F)n2)CC1(C)C [Example 378, N-[3-[5-chloro-2-(difluoromethoxy)phenyl]-1-[2-oxo-2-(3,3,4-trimethylpiperazin-1-yl)ethyl]-1H-pyrazol-4-yl]pyrazolo[1,5-a]pyrimidine-3-carboxamide]	0.93	1.6	0.0874
CN1CCC(COC(=O)C2(C)CCN(C(=O)Cn3cc(NC(=O)c4cnn5cccnc45)c(-c4cc(Cl)ccc4OC(F)F)n3)CC2)CC1 [Example 389, (1-methylpiperidin-4-yl)methyl 1-(2-[3-[5-chloro-2-(difluoromethoxy)phenyl]-4-[pyrazolo[1,5-a]pyrimidine-3-amido]-1H-pyrazol-1-yl]acetyl)-4-methylpiperidine-4-carboxylate]	0.4	2.16	0.0175
